# From PMC10745497, “The Discovery of Indole-2-carboxylic Acid Derivatives as Novel HIV-1 Integrase Strand Transfer Inhibitors” (Molecules, 2023)
# Read-outs that look alike come from different tables or passages of the source.
# Key:
# HIV-1 integrase = target: T1, HIV-1 integrase (Human immunodeficiency virus type 1 group M subtype B, UniProt P04585); assay: Strand transfer inhibition assay (HIV-1 integrase assay kit); assay type: biochemical; details: for IC50: average of three independent experiments; for Improvement of integrase inhibitory activity over the parent compound 3: ratio of IC50s versus compound 3
# T1 construct: purchased Abnova
# Description: The strand transfer assay was performed using an HIV-1 integrase assay kit (Abnova, Taipei, CN) according to the manufacturer’s instructions. Each sample was dissolved in DMSO and diluted to a final desired concentration (80, 40, 20, 10, 5 μM) with reaction buffer. Briefly, 100 μL of DS DNA solution was added to each well and incubated for 30 min at 37 °C, and the liquid was removed from the wells and washed 3 times with wash buffer. Then, 200 μL of blocking buffer was added to each well and incubated for 30 min in a 37 °C incubator. Followed by the aspiration of the liquid, each well was washed 3 times with reaction buffer, and 100 μL integrase enzyme solution was added to each well and incubated under similar conditions. Sequentially, 50 μL reaction buffer containing different concentrations of samples was added to each well and incubated for 5 min at room temperature. To each well was added 50 μL of TS DNA solution, and the reactions were mixed gently and incubated for 30 min at 37 °C. Then, each well was washed 3 times with wash solution, incubated with 100 μL HRP antibody and incubated for 30 min at 37 °C. After washing the plate under the same conditions, 100 μL TMB peroxidase substrate solution was added to each well and incubated at room temperature for 10 min. To terminate the reaction, 100 μL TMB stop solution was directly added to each well and the absorbance of the sample was determined using a plate reader (ELx800UV, Bio-Tek Instrument Inc., Winooski, VT, USA) at 450 nm.
# [1] = Cytotoxicity assay (MTT) on MT-4 cells; assay type: cell-based, human; details: human, five days, read-out: CC50, concentration that inhibits the proliferation of MT-4 cells by 50%
# Description: (§1) The cytotoxicity of the title compounds was tested through MTT analysis on MT-4 cells. Cells were seeded in 96-well plates with a density of 50,000 cells/well and coincubated with serial diluted compounds (2.5, 5, 10, 20, 40, and 80 μM) at 37 °C for five days. MTT (Sigma) was then added to each well to a final concentration of 0.5 mg/mL and incubated for 2 h. Subsequently, the medium was decanted, and 150 μL of DMSO was added to each well. The absorbance was obtained using a microplate reader at 570 nm, and all measurements were conducted three times under the same condition. Finally, 50% cytotoxicity concentration (CC50) values were calculated by Graphpad Prism 8.
# MT-4 cells = assay: Cytotoxicity assay (MTT) on MT-4 cells; assay type: cell-based, human; details: five days, read-out: CC50, concentration that inhibits the proliferation of MT-4 cells by 50%
# Description: as §1
# [2] = read-out: IC50, concentration required to inhibit the in vitro strand-transfer step of integrase by 50%
# [3] = IC50, concentration required to inhibit the in vitro strand-transfer step of integrase by 50%
compound,measurement,setting,value
Cc1c2c(=O)n(-c3nc4ccccc4s3)n(Cc3ccccc3)c2cc(=O)n1Cc1ccc2c(c1)OCO2 [Compound 10],IC50,HIV-1 integrase; [2],22.3 ± 0.43 µM
same,melting point,,139.9 to 143.6 °C
"O=C(O)c1[nH]c2cc(Nc3ccc(F)cc3F)ccc2c1COCc1ccc(C(F)(F)F)cc1 [Compound 17b, 6-((2,4-difluorophenyl)amino)-3-(((4-(trifluoromethyl)benzyl)oxy)methyl)-1H-indole-2-carboxylic acid]",IC50,HIV-1 integrase; [2],0.39 ± 0.09 µM
same,melting point,,157.3 to 160.5 °C
same,CC50 at 5 days,[1],> 80 µM
"COc1ccc(Nc2ccc3c(COCc4ccc(C(F)(F)F)cc4)c(C(=O)O)[nH]c3c2)cc1F [Compound 17a, 6-((3-fluoro-4-methoxyphenyl)amino)-3-(((4-(trifluoromethyl)benzyl)oxy)methyl) -1H-indole-2-carboxylic acid]",IC50,HIV-1 integrase; [2],0.93 ± 0.07 µM
same,melting point,,134.8 to 136.3 °C
same,CC50 at 5 days,[1],> 80 µM
"Cc1nnc(C(=O)NC(C)(C)c2nc(C(=O)NCc3ccc(F)cc3)c(O)c(=O)n2C)o1 [RAL, raltegravir, reference compound]",CC50 at 5 days,[1],> 80 µM
"COc1ccc(Nc2ccc3c(COCc4ccc(C(F)(F)F)cc4)c(C(=O)OC(C)C)[nH]c3c2)cc1F [Compound 16a, Isopropyl 6-((3-fluoro-4-methoxyphenyl)amino)-3-(((4-(trifluoromethyl)benzyl)oxy)methyl)-1H-indole-2-carboxylate]",IC50,HIV-1 integrase; [2],3.47 ± 0.82 µM
same,melting point,,142.3 to 145.6 °C
same,CC50 at 5 days,[1],> 80 µM
COc1cc(OC)c([C@H]2c3c(oc4ccc(Cl)cc4c3=O)C(=O)N2c2cc(C)on2)cc1OC [Compound 4],IC50,HIV-1 integrase; [2],18.5 ± 1.06 µM
same,melting point,,271.4 to 279 °C
O=C(NCc1ccc(F)cc1)c1coc(CN(Cc2ccc3c(c2)OCO3)Cc2ccc3c(c2)OCO3)n1 [Compound 8],IC50,HIV-1 integrase; [2],28.2 ± 1.07 µM
same,melting point,,171.5 to 176.8 °C
"COc1ccc(Nc2ccc3c(COCc4ccccc4F)c(C(=O)OC(C)C)[nH]c3c2)cc1F [Compound 19a, Isopropyl 6-((3-fluoro-4-methoxyphenyl)amino)-3-(((2-fluorobenzyl)oxy)methyl)-1H-indole-2-carboxylate]",IC50,HIV-1 integrase; [2],1.05 ± 0.32 µM
same,melting point,,141.2 to 144.5 °C
same,CC50 at 5 days,[1],> 29 µM
same,CC50,MT-4 cells,37.6 ± 3.64 µM
"CC(C)OC(=O)c1[nH]c2cc(Br)ccc2c1COCc1ccc(C(F)(F)F)cc1 [Compound 15, Isopropyl 6-bromo-3-(((4-(trifluoromethyl)benzyl)oxy)methyl)-1H-indole-2-carboxylate]",IC50,HIV-1 integrase; [3],2.34 ± 0.31 µM
same,Improvement of integrase inhibitory activity over the parent compound 3,HIV-1 integrase,5.3 fold
same,CC50 at 5 days,[1],> 80 µM
"COc1ccc(Nc2ccc3c(COCc4ccccc4F)c(C(=O)O)[nH]c3c2)cc1F [Compound 20a, 6-((3-fluoro-4-methoxyphenyl)amino)-3-(((2-fluorobenzyl)oxy)methyl)-1H-indole-2-carboxylic acid]",IC50,HIV-1 integrase; [2],0.13 ± 0.02 µM
same,melting point,,169.9 to 173.7 °C
same,CC50 at 5 days,[1],> 80 µM
Cc1ccc(CNC(=O)CCS(=O)(=O)c2ccc3c(c2)CCN3C(=O)C2CC2)cc1 [Compound 1],IC50,HIV-1 integrase; [2],39.1 ± 1.21 µM
same,melting point,,173.4 to 175.3 °C
Clc1ccc2c(c1)C(c1ccccc1Cl)=NCc1nnc(CSCc3ccccc3)n1-2 [Compound 5],IC50,HIV-1 integrase; [3],47.4 ± 1.45 µM
same,melting point,,164.7 to 167.8 °C
COc1ccc([C@H]2CC(=O)Nc3c(S(=O)(=O)c4ccccc4)csc32)cc1OC1CCCC1 [Compound 2],IC50,HIV-1 integrase; [2],33 ± 1.29 µM
same,melting point,,113 to 116.7 °C
O=C(NC1CCCC1)c1ccc2c(=O)n(Cc3ccco3)c(=O)n(Cc3cccc([N+](=O)[O-])c3)c2c1 [Compound 6],IC50,HIV-1 integrase; [2],22.6 ± 0.58 µM
same,melting point,,235.3 to 241.2 °C
"O=C(O)c1[nH]c2cc(Nc3ccc(F)cc3F)ccc2c1COCc1ccccc1F [Compound 20b, 6-((2,4-difluorophenyl)amino)-3-(((2-fluorobenzyl)oxy)methyl)-1H-indole-2-carboxylic acid]",IC50,HIV-1 integrase; [2],0.64 ± 0.06 µM
same,melting point,,178.5 to 181.8 °C
same,CC50 at 5 days,[1],> 80 µM
"O=C(O)c1[nH]c2cc(Br)ccc2c1COCc1ccccc1F [Compound 21, 6-bromo-3-(((2-fluorobenzyl)oxy)methyl)-1H-indole-2-carboxylic acid]",IC50,HIV-1 integrase; [2],6.85 ± 0.66 µM
same,melting point,,174.3 to 178 °C
same,CC50 at 5 days,[1],> 80 µM
O=c1c2cc(N3CCOCC3)ccc2nc(SCc2cc(=O)n3cc(Cl)ccc3n2)n1Cc1ccc2c(c1)OCO2 [Compound 9],IC50,HIV-1 integrase; [2],32.8 ± 0.83 µM
same,melting point,,239 to 240.1 °C
"CC(C)OC(=O)c1[nH]c2cc(Br)ccc2c1COCc1ccccc1F [Compound 18, Isopropyl 6-bromo-3-(((2-fluorobenzyl)oxy)methyl)-1H-indole-2-carboxylate]",IC50,HIV-1 integrase; [3],1.92 ± 0.07 µM
same,Improvement of integrase inhibitory activity over the parent compound 3,HIV-1 integrase,6.5 fold
same,melting point,,154.6 to 158.9 °C
same,CC50 at 5 days,[1],> 29 µM
same,CC50,MT-4 cells,45.3 ± 2.73 µM
COc1ccc2[nH]c(C(=O)O)c(CC(=O)O)c2c1 [Compound 3],IC50,HIV-1 integrase; [2],12.41 ± 0.07 µM
same,melting point,,159.7 to 163.2 °C
"CC(C)OC(=O)c1[nH]c2cc(Nc3ccc(F)cc3F)ccc2c1COCc1ccccc1F [Compound 19b, Isopropyl 6-((2,4-difluorophenyl)amino)-3-(((2-fluorobenzyl)oxy)methyl)-1H-indole-2-carboxylate]",IC50,HIV-1 integrase; [2],1.7 ± 0.15 µM
same,melting point,,171.8 to 175.3 °C
same,CC50 at 5 days,[1],> 29 µM
same,CC50,MT-4 cells,29.4 ± 1.76 µM
O=C(/C=C/c1ccc2c(c1)OCO2)C[C@@]1(O)C(=O)N(Cc2ccc(Cl)cc2)c2ccccc21 [Compound 7],IC50,HIV-1 integrase; [2],21.4 ± 0.26 µM
same,melting point,,147 to 148.2 °C
"CC(C)OC(=O)c1[nH]c2cc(Nc3ccc(F)cc3F)ccc2c1COCc1ccc(C(F)(F)F)cc1 [Compound 16b, Isopropyl 6-((2,4-difluorophenyl)amino)-3-(((4-(trifluoromethyl)benzyl)oxy)methyl)-1H-indole-2-carboxylate]",IC50,HIV-1 integrase; [2],1.06 ± 0.25 µM
same,melting point,,149.7 to 152.5 °C
same,CC50 at 5 days,[1],> 80 µM
